Results as given in patent US20070172470A1, “Phosphatase regulation of nucleic acid transcription” (The Regents of the University of California, priority 2003, published 2007).
Read-outs that look alike come from different tables or passages of the source.

Target: SCP1 (Homo sapiens, UniProt Q9GZU7)
Test: PNθP phosphatase assay in the presence of phosphatase inhibitors
Type: biochemical

SCP1, sequence (Q9GZU7 other isoform, or with tags, fused parts or gaps): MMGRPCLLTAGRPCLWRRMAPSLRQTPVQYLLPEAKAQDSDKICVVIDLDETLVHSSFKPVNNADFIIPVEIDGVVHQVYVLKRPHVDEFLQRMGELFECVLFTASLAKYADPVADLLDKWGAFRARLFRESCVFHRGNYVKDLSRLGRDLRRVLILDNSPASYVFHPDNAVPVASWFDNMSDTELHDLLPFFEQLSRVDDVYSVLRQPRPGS

Molecule	SCP1 phosphatase activity in the presence of phosphatase inhibitor (GST-SCP1 214 (40 pmol), 20 mM PNθP, 1-10 μM inhibitor)	SCP1 phosphatase activity in the presence of phosphatase inhibitor
C=C1[C@@H](O)[C@@H]2O[C@]3(CC[C@H](/C=C/[C@@H](C)[C@@H]4CC(C)=C[C@@]5(O[C@H](C[C@@](C)(O)C(=O)O)CC[C@H]5O)O4)O3)CC[C@H]2O[C@@H]1[C@@H](O)C[C@H](C)[C@H]1O[C@@]2(CCCCO2)CC[C@H]1C [okadaic acid]	resistant	
microcystin		resistant
